Results: PMC12298351, “Novel 3,19-(N-Phenyl-3-(4-fluorophenyl)-pyrazole) Acetal of Andrographolide Promotes Cell Cycle Arrest and Apoptosis in MDA-MB-231 Breast Cancer Cells” (Pharmaceuticals, 2025)

Experiments:
HCT-116 = assay type: cell-based; conditions: HCT-116, Colon
[1] = DPPH radical scavenging assay; conditions: 25 µM test compound, 0.1 mM DPPH, acetonitrile, 30 min
Method in brief: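 Compounds at 25 µM in acetonitrile mixed 1:2 with 0.1 mM DPPH in acetonitrile, kept 30 min in the dark at room temperature. Absorbance read at 517 nm; % scavenging = (Ac − As)/Ac × 100, Ac being DPPH blank. Ascorbic acid positive control.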

MOLT-4 = conditions: MOLT-4, Leukemia
RPMI-8226 = conditions: RPMI-8226, Leukemia
HCC-2998 = conditions: HCC-2998, Colon
HCT-15 = conditions: HCT-15, Colon
KM12 = conditions: KM12, Colon
SF-268 = conditions: SF-268, CNS
SF-295 = conditions: SF-295, CNS
SF-539 = conditions: SF-539, CNS
MDA-MB-435 = conditions: MDA-MB-435, Melanoma
SK-MEL-28 = conditions: SK-MEL-28, Melanoma
SK-MEL-5 = conditions: SK-MEL-5, Melanoma
OVCAR-3 = conditions: OVCAR-3, Ovarian
OVCAR-5 = conditions: OVCAR-5, Ovarian
SK-OV-3 = conditions: SK-OV-3, Ovarian
786-0 = conditions: 786-0, Renal
CAKI-1 = conditions: CAKI-1, Renal
RXF 393 = conditions: RXF 393, Renal
DU-145 = conditions: DU-145, Prostate
MCF7 = conditions: MCF7, Breast
MDA-MB-468 = conditions: MDA-MB-468, Breast
[2] = read-out: 50% lethal concentration (LC50)

C=C1CCC2C3(C)COC(c4cn(-c5ccccc5)nc4-c4cccc(Br)c4)OC3CCC2(C)C1CC=C1C(=O)OCC1O (stereo not drawn) [1e]
GI50 (HCT-116): 1.24 µM
Total growth inhibition (TGI) (HCT-116): 2.75 µM
% DPPH radical scavenging activity [1]: 58.75%
GI50 (MOLT-4): 0.91 µM
Total growth inhibition (TGI) (MOLT-4): 4.24 µM
CC50 (MOLT-4; [2]): > 100 µM
GI50 (RPMI-8226): 2.75 µM
Total growth inhibition (TGI) (RPMI-8226): > 100 µM
CC50 (RPMI-8226; [2]): > 100 µM
Total growth inhibition (TGI) (EKVX; Non-Small Cell Lung): 5.16 µM
GI50 (EKVX; Non-Small-Cell Lung): 2.1 µM
CC50 (EKVX; read-out: 50% lethal concentration (LC50), Non-Small Cell Lung): > 100 µM
Total growth inhibition (TGI) (NCI-H226; NCI-H226, Non-Small Cell Lung): 3.43 µM
GI50 (NCI-H226; NCI-H226, Non-Small-Cell Lung): 1.75 µM
CC50 (NCI-H226; read-out: 50% lethal concentration (LC50), NCI-H226, Non-Small Cell Lung): 6.71 µM
Total growth inhibition (TGI) (NCI-H460; NCI-H460, Non-Small Cell Lung): 3.49 µM
GI50 (NCI-H460; NCI-H460, Non-Small-Cell Lung): 1.78 µM
CC50 (NCI-H460; read-out: 50% lethal concentration (LC50), NCI-H460, Non-Small Cell Lung): 6.83 µM
GI50 (HCC-2998): 1.72 µM
Total growth inhibition (TGI) (HCC-2998): 3.33 µM
GI50 (HCT-15): 1.6 µM
Total growth inhibition (TGI) (HCT-15): 3.55 µM
CC50 (HCT-15; [2]): 7.85 µM
GI50 (KM12): 1.83 µM
Total growth inhibition (TGI) (KM12): 3.58 µM
GI50 (SF-268): 2.02 µM
Total growth inhibition (TGI) (SF-268): 4.26 µM
CC50 (SF-268; [2]): 8.98 µM
GI50 (SF-295): 1.36 µM
Total growth inhibition (TGI) (SF-295): 2.68 µM
CC50 (SF-295; [2]): 5.3 µM
GI50 (SF-539): 1.78 µM
Total growth inhibition (TGI) (SF-539): 3.2 µM
CC50 (SF-539; [2]): 5.74 µM
GI50 (MDA-MB-435): 1.72 µM
Total growth inhibition (TGI) (MDA-MB-435): 3.6 µM
CC50 (MDA-MB-435; [2]): 7.51 µM
GI50 (SK-MEL-28): 1.73 µM
Total growth inhibition (TGI) (SK-MEL-28): 3.28 µM
CC50 (SK-MEL-28; [2]): 6.2 µM
GI50 (SK-MEL-5): 1.54 µM
Total growth inhibition (TGI) (SK-MEL-5): 2.88 µM
CC50 (SK-MEL-5; [2]): 5.39 µM
GI50 (OVCAR-3): 1.69 µM
Total growth inhibition (TGI) (OVCAR-3): 3.21 µM
CC50 (OVCAR-3; [2]): 6.08 µM
GI50 (OVCAR-5): 1.85 µM
Total growth inhibition (TGI) (OVCAR-5): 4.35 µM
CC50 (OVCAR-5; [2]): 47.7 µM
GI50 (SK-OV-3): 4.16 µM
Total growth inhibition (TGI) (SK-OV-3): 48.3 µM
CC50 (SK-OV-3; [2]): > 100 µM
GI50 (786-0): 2.59 µM
CC50 (786-0; [2]): > 100 µM
GI50 (ACHN; Renal): 1.61 µM
Total growth inhibition (TGI) (ACHN; Renal): 16.8 µM
CC50 (ACHN; read-out: 50% lethal concentration (LC50), Renal): 5.51 µM
GI50 (CAKI-1): 1.42 µM
Total growth inhibition (TGI) (CAKI-1): 2.98 µM
CC50 (CAKI-1; [2]): 6.04 µM
GI50 (RXF 393): 1.18 µM
Total growth inhibition (TGI) (RXF 393): 2.93 µM
CC50 (RXF 393; [2]): 5.51 µM
GI50 (DU-145): 2.12 µM
Total growth inhibition (TGI) (DU-145): 4.57 µM
CC50 (DU-145; [2]): 9.82 µM
GI50 (MCF7): 1.77 µM
Total growth inhibition (TGI) (MCF7): > 100 µM
CC50 (MCF7; [2]): > 100 µM
GI50 (MDA-MB-231; MDA-MB-231, Breast): 1.68 µM
Total growth inhibition (TGI) (MDA-MB-231; MDA-MB-231/ATCC, Breast): 3.23 µM
CC50 (MDA-MB-231; read-out: 50% lethal concentration (LC50), MDA-MB-231/ATCC, Breast): 6.23 µM
GI50 (MDA-MB-468): 1.82 µM
Total growth inhibition (TGI) (MDA-MB-468): 3.41 µM
CC50 (MDA-MB-468; [2]): 6.37 µM
